In ChEMBL document CHEMBL3885861, “Open TG-GATES”:

Organism: Rattus norvegicus
Assay: Open TG-GATES - Regimen: Single
Format: toxicity, organism-based, Sprague-Dawley
Design: regimen Single, gender Male, age 6 weeks
Settings: in vivo, iv, 0 mg/kg, route intravenous injection, dose level Control; for APTT / Bas / Eos / Fbg / Hb / Ht / Lym / MCH / MCHC / MCV / Mono / Neu / PT / Plat / RBC / Ret / WBC: tissue Blood; for KIDNEY_L / KIDNEY_R / KIDNEY_TOTAL: tissue Kidney; for LIVER: tissue Liver; for A/G / ALP / ALT / AST / BUN / CRE / Ca / Cl / DBIL / GLC / IP / K / LDH / Na / PL / RALB / TBIL / TC / TG / TP / gamma-GTP: tissue Plasma

C[C@@H]1[C@H](O)[C@@H](C)/C=C/C=C/C=C/C=C/C=C/C=C/C=C/[C@H](O[C@@H]2O[C@H](C)[C@@H](O)[C@H](N)[C@@H]2O)C[C@@H]2O[C@](O)(C[C@@H](O)C[C@@H](O)[C@H](O)CC[C@@H](O)C[C@@H](O)CC(=O)O[C@H]1C)C[C@H](O)[C@H]2C(=O)O [AMPHOTERICIN B]
TERMINAL_BW (3 h): 219.1 g | APTT (3 h): 17.6 s | Bas (3 h): 0% | Eos (3 h): 0.6% | Fbg (3 h): 275.4 mg/dL | Hb (3 h): 13.2 g/dL | Ht (3 h): 39.1% | Lym (3 h): 78.4% | MCH (3 h): 20.8 pg | MCHC (3 h): 33.9% | MCV (3 h): 61.3 fL | Mono (3 h): 2.6% | Neu (3 h): 17.2% | PT (3 h): 13.1 s | Plat (3 h): 131.5 x10_4/uL | RBC (3 h): 638.4 x10_4/ul | Ret (3 h): 7% | WBC (3 h): 102.7 x10_2/uL | KIDNEY_L (3 h): 0.9 g | KIDNEY_R (3 h): 1 g | KIDNEY_TOTAL (3 h): 1.9 g | LIVER (3 h): 9.9 g | A/G (3 h): 0.8 | ALP (3 h): 1671 IU/L | ALT (3 h): 40.4 IU/L | AST (3 h): 86 IU/L | BUN (3 h): 11.4 mg/dL | CRE (3 h): 0.2 mg/dL | Ca (3 h): 11 mg/dL | Cl (3 h): 106.2 meq/L | DBIL (3 h): 0.02 mg/dL | GLC (3 h): 167.2 mg/dL | IP (3 h): 8.3 mg/dL | K (3 h): 3.9 meq/L | LDH (3 h): 67 IU/L | Na (3 h): 142 meq/L | PL (3 h): 130.4 mg/dL | RALB (3 h): 2.5 g/dL | TBIL (3 h): 0.066 mg/dL | TC (3 h): 75.4 mg/dL | TG (3 h): 58.8 mg/dL | TP (3 h): 5.5 g/dL | gamma-GTP (3 h): 1.6 IU/L | TERMINAL_BW (6 h): 212 g | APTT (6 h): 17 s | Bas (6 h): 0% | Eos (6 h): 0.8% | Fbg (6 h): 271.2 mg/dL | Hb (6 h): 13.4 g/dL | Ht (6 h): 39.9% | Lym (6 h): 77.2% | MCH (6 h): 21.1 pg | MCHC (6 h): 33.6% | MCV (6 h): 62.6 fL | Mono (6 h): 1.8% | Neu (6 h): 19.6% | PT (6 h): 13.1 s | Plat (6 h): 129.4 x10_4/uL | RBC (6 h): 637.4 x10_4/ul | Ret (6 h): 8.6% | WBC (6 h): 90.4 x10_2/uL | KIDNEY_L (6 h): 0.9 g | KIDNEY_R (6 h): 0.9 g | KIDNEY_TOTAL (6 h): 1.9 g | LIVER (6 h): 8.8 g | A/G (6 h): 0.8 | ALP (6 h): 1553.8 IU/L | ALT (6 h): 35.6 IU/L | AST (6 h): 68 IU/L | BUN (6 h): 8.4 mg/dL | CRE (6 h): 0.1 mg/dL | Ca (6 h): 10.6 mg/dL | Cl (6 h): 105 meq/L | DBIL (6 h): 0.014 mg/dL | GLC (6 h): 182.2 mg/dL | IP (6 h): 9.9 mg/dL | K (6 h): 3.9 meq/L | LDH (6 h): 50.8 IU/L | Na (6 h): 142 meq/L | PL (6 h): 125.8 mg/dL | RALB (6 h): 2.5 g/dL | TBIL (6 h): 0.064 mg/dL | TC (6 h): 76.2 mg/dL | TG (6 h): 46.8 mg/dL | TP (6 h): 5.5 g/dL | gamma-GTP (6 h): 1.6 IU/L | TERMINAL_BW (9 h): 208.7 g | APTT (9 h): 17.4 s | Bas (9 h): 0% | Eos (9 h): 1% | Fbg (9 h): 281.4 mg/dL | Hb (9 h): 13.4 g/dL | Ht (9 h): 39.1% | Lym (9 h): 71.8% | MCH (9 h): 21.1 pg | MCHC (9 h): 34.2% | MCV (9 h): 61.6 fL | Mono (9 h): 1.8% | Neu (9 h): 24.4% | PT (9 h): 13.2 s | Plat (9 h): 136.6 x10_4/uL | RBC (9 h): 635 x10_4/ul | Ret (9 h): 8.1% | WBC (9 h): 80.2 x10_2/uL | KIDNEY_L (9 h): 0.9 g | KIDNEY_R (9 h): 0.9 g | KIDNEY_TOTAL (9 h): 1.8 g | LIVER (9 h): 8.3 g | A/G (9 h): 0.8 | ALP (9 h): 1611.8 IU/L | ALT (9 h): 30.6 IU/L | AST (9 h): 67.6 IU/L | BUN (9 h): 8.6 mg/dL | CRE (9 h): 0.1 mg/dL | Ca (9 h): 10.6 mg/dL | Cl (9 h): 106.4 meq/L | DBIL (9 h): 0.018 mg/dL | GLC (9 h): 170.2 mg/dL | IP (9 h): 9.7 mg/dL | K (9 h): 3.7 meq/L | LDH (9 h): 54.8 IU/L | Na (9 h): 142.2 meq/L | PL (9 h): 120.8 mg/dL | RALB (9 h): 2.5 g/dL | TBIL (9 h): 0.068 mg/dL | TC (9 h): 72.6 mg/dL | TG (9 h): 43.8 mg/dL | TP (9 h): 5.6 g/dL | gamma-GTP (9 h): 1.8 IU/L | TERMINAL_BW (24 h): 228.2 g | APTT (24 h): 15.8 s | Bas (24 h): 0.2% | Eos (24 h): 1% | Fbg (24 h): 302.6 mg/dL | Hb (24 h): 13 g/dL | Ht (24 h): 38.7% | Lym (24 h): 78.8% | MCH (24 h): 20.9 pg | MCHC (24 h): 33.6%
